17 compounds from US11312719B2, “9-substituted amino triazolo quinazoline derivatives as adenosine receptor antagonists, pharmaceutical compositions and their use” (Merck Sharp & Dohme Corp., priority 2018, dated 2022) can be followed below.

The structures appear in SMILES notation.

For assay [1], the target named is human A2a adenosine receptor (Homo sapiens (Human), UniProt P29274). The assay can be described thus: A2a receptor affinity radioligand binding assay ([3H] SCH58261). To be noted: membranes from HEK293 or CHO cells expressing human A2a receptor. The gist of the method:
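Membranes from HEK293 or CHO cells expressing human A2a were preincubated 15–30 min at room temperature with compound, then incubated 60 min at room temperature with [3H]SCH58261 (diluted to 4 nM) in 50 mM Tris pH 7.4, 10 mM MgCl2, 0.005% Tween20. Bound radioactivity was collected by filtration; nonspecific binding defined with 1 μM ZM241385; IC50 from 4-parameter logistic fit.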

Assay [2] has as its target human A2b adenosine receptor (Homo sapiens (Human), UniProt P29275). The assay can be described thus: A2b radioligand filtration binding assay. To be noted: for IC50: membranes from HEK293 cells expressing human A2b receptor. An outline of the steps: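 Membranes from HEK293 cells expressing human A2b receptor preincubated with compound 15 to 30 min at room temperature, then tritiated proprietary A2b antagonist (diluted to 14 nM before addition) added in PBS pH 7.4 for 60 min at room temperature. Bound radioactivity by filtration and scintillation; non-specific binding with 20 μM NECA; IC50 by 4-parameter logistic fit.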

Chain of human A2a adenosine receptor (P29274 whole entry): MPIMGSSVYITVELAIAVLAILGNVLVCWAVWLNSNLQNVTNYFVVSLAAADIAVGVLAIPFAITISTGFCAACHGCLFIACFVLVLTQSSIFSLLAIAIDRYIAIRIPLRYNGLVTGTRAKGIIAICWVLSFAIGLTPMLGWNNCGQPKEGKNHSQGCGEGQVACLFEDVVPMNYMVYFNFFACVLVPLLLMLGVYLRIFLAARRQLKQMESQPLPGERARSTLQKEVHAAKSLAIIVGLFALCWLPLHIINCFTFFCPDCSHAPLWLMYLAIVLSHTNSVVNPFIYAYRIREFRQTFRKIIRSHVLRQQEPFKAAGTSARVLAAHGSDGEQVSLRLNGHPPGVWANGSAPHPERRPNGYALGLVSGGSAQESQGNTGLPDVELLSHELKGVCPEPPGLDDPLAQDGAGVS
Chain of human A2b adenosine receptor (P29275 whole entry): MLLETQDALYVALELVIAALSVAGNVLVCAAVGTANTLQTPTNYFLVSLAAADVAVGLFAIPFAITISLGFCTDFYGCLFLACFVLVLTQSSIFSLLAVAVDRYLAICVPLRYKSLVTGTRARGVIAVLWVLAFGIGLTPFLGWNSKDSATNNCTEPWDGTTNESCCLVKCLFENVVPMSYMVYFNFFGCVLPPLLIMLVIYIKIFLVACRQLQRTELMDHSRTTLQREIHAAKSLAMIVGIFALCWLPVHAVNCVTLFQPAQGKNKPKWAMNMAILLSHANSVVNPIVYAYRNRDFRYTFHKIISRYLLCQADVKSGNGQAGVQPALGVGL

What is called IC50 is the concentration needed to halve the response being measured. Read a high IC50 as lower potency. Take `COc1cc2nc(N)n3nc([C@@H]4CCCN(c5cnn([C@H]6CCC[C@]6(C)O)c5)C4)nc3c2cc1F` (single isomer, unassigned) [Example 83, (1S or 1R,2S or 2R)-2-(4-((R)-3-(5-amino-9-fluoro-8-methoxy-[1,2,4]triazolo[1,5-c]quinazolin-2-yl)piperidin-1-yl)-1H-pyrazol-1-yl)-1-methylcyclopentan-1-ol]: the results for the IC50 in assay [1] and in assay [2] were 2.7 nM and 113 nM, respectively.
On the same counts, the results for `COc1cc2nc(N)n3nc([C@@H]4CCCN(c5ncn(C(C)C(C)(C)O)n5)C4)nc3c2cc1F` (single isomer, unassigned) [Example 64, (R or S)-3-(3-((R)-3-(5-amino-9-fluoro-8-methoxy-[1,2,4]triazolo[1,5-c]quinazolin-2-yl)piperidin-1-yl)-1H-1,2,4-triazolo-1-yl)-2-methylbutan-2-ol] are 1 nM and 555 nM.
As to `Cn1cc(N2CCCC(c3nc4c5cc(F)c(F)cc5nc(N)n4n3)C2)cn1` (single isomer, unassigned) [Example 101, (R or S)-8,9-difluoro-2-(1-(1-methyl-1H-pyrazol-4-yl)piperidin-3-yl)-[1,2,4]triazolo[1,5-c]quinazolin-5-amine], the IC50 in assay [1] is 32.7 nM; in assay [2] it was 390 nM.
On the same counts, the results for `Cn1cc(N2CCCC(c3nc4c5cc(F)ccc5nc(N)n4n3)C2)cn1` (single isomer, unassigned) [Example 102, (R or S)-9-fluoro-2-(1-(1-methyl-1H-pyrazol-4-yl)piperidin-3-yl)-[1,2,4]triazolo[1,5-c]quinazolin-5-amine] are 104 nM and 539 nM.
The matching figures for `COc1cc2nc(N)n3nc([C@@H]4CC[C@H](C)N(c5cnn(C(C)C(C)(C)O)c5)C4)nc3c2cc1F` (single isomer, unassigned) [Example 48, (R or S)-3-(4-((2S,5R or 2R,5S)-5-(5-amino-9-fluoro-8-methoxy-[1,2,4]triazolo[1,5-c]quinazolin-2-yl)-2-methylpiperidin-1-yl)-1H-pyrazol-1-yl)-2-methylbutan-2-ol]: 0.6 nM and 17.6 nM.
In the case of `Cn1cc(N2CCCC(c3nc4c5cc(Cl)ccc5nc(N)n4n3)C2)cn1` (single isomer, unassigned) [Example 106, (R or S)-9-chloro-2-(1-(1-methyl-1H-pyrazol-4-yl)piperidin-3-yl)-[1,2,4]triazolo[1,5-c]quinazolin-5-amine], the IC50 in assay [1] stood at 316 nM; in assay [2], 430 nM.
On to `COc1cc2nc(N)n3nc(C4CCC(C)N(c5cnn(CC(C)(C)O)c5C)C4)nc3c2cc1F` [Example 52, 1-(4-((2R,5S, or 2S,5R)-5-(5-amino-9-fluoro-8-methoxy-[1,2,4]triazolo[1,5-c]quinazolin-2-yl)-2-methylpiperidin-1-yl)-5-methyl-1H-pyrazol-1-yl)-2-methylpropan-2-ol], for which the figures for the IC50 in assay [1] and in assay [2] were 18.3 nM and 3010 nM, respectively.
Take `COc1cc2nc(N)n3nc(C4CCC(C)N(c5cnn(C(C)(C)C(C)(C)O)c5)C4)nc3c2cc1F` (single isomer, unassigned) [Example 43, 3-(4-((2S,5R or 2R,5S)-5-(5-amino-9-fluoro-8-methoxy-[1,2,4]triazolo[1,5-c]quinazolin-2-yl)-2-methylpiperidin-1-yl)-1H-pyrazol-1-yl)-2,3-dimethylbutan-2-ol]: the IC50 in assay [1] was 0.7 nM; in assay [2] it was 3.4 nM.
As to `COc1cc2nc(N)n3nc([C@H]4CC[C@@H](C)N(c5cnn(CC6(O)CCC6)c5C)C4)nc3c2cc1F` (single isomer, unassigned) [Example 51, 1-((4-((2R,5S or 2S,5R)-5-(5-amino-9-fluoro-8-methoxy-[1,2,4]triazolo[1,5-c]quinazolin-2-yl)-2-methylpiperidin-1-yl)-5-methyl-1H-pyrazol-1-yl)methyl)cyclobutan-1-ol], the IC50 came to 21 nM in assay [1] and 2080 nM in assay [2].
The matching figures for `COc1cc2nc(N)n3nc([C@@H]4CCCN(c5cn(C(C)(C)CO)nc5C)C4)nc3c2cc1F` [Example 11, (R)-2-(4-(3-(5-amino-9-fluoro-8-methoxy-[1,2,4]triazolo[1,5-c]quinazolin-2-yl)piperidin-1-yl)-3-methyl-1H-pyrazol-1-yl)-2-methylpropan-1-ol]: 0.5 nM and 56 nM.
On the same counts, the results for `COc1cc(F)cc2c1nc(N)n1nc(C3CCC(C)N(c4cnn(C(C)(C)CO)c4)C3)nc21` (single isomer, unassigned) [Example 124, 2-(4-((2R or 2S,5S or 5R)-5-(5-amino-9-fluoro-7-methoxy-[1,2,4]triazolo[1,5-c]quinazolin-2-yl)-2-methylpiperidin-1-yl)-1H-pyrazol-1-yl)-2-methylpropan-1-ol] are 0.3 nM and 1.7 nM.
The matching figures for `COc1cc2nc(N)n3nc([C@@H]4CCCN(c5cnn(CC6(O)CCC6)c5)C4)nc3c2cc1F` [Example 10, (R)-1-((4-(3-(5-amino-9-fluoro-8-methoxy-[1,2,4]triazolo [1,5-c]quinazolin-2-yl)piperidin-1-yl)-1H-pyrazol-1-yl)methyl)cyclobutan-1-ol]: 3.5 nM and 63.4 nM.
With `CCn1cc([C@@]2(O)CCCC(c3nc4c5cc(F)c(OC)cc5nc(N)n4n3)C2)cn1` (single isomer, unassigned) [Example 146, (1R or 1S,3R or 3S)-3-(5-amino-9-fluoro-8-methoxy-[1,2,4]triazolo[1,5-c]quinazolin-2-yl)-1-(1-ethyl-1H-pyrazol-4-yl)cyclohexan-1-ol], the IC50 in assay [1] was 2.1 nM; in assay [2] it was 137 nM.
Turning to `COc1cc(F)cc2c1nc(N)n1nc([C@@H]3CCCN(c4nc(C)n(CC(C)(C)O)n4)C3)nc21` [Example 37, (R)-1-(3-(3-(5-amino-9-fluoro-7-methoxy-[1,2,4]trazolo[1,5-c]quinazolin-2-yl)piperidin-1-yl)-5-methyl-1H-1,2,4-triazol-1-yl)-2-methylpropan-2-ol], the IC50 came to 1.1 nM in assay [1] and 468 nM in assay [2].
For the compound `COc1cc2nc(N)n3nc([C@@H]4CCCN(c5cnn(C6CCCC6O)c5)C4)nc3c2cc1F` (single isomer, unassigned) [Example 84, (1R or 1S,2R or 2S)-2-(4-((R)-3-(5-amino-9-fluoro-8-methoxy-[1,2,4]triazolo[1,5-c]quinazolin-2-yl)piperidin-1-yl)-1H-pyrazol-1-yl)cyclopentan-1-ol], the results for the IC50 in assay [1] and in assay [2] were 2.3 nM and 117 nM, respectively.
The matching figures for `COc1cc2nc(N)n3nc([C@@H]4CCCN(c5cnn(C6CCOCC6)c5C)C4)nc3c2cc1F` [Example 16, (R)-9-fluoro-8-methoxy-2-(1-(5-methyl-1-(tetrahydro-2H-pyran-4-yl)-1H-pyrazol-4-yl)piperidin-3-yl)-[1,2,4]triazolo[1,5-c]quinazoliu-5-amine]: 0.8 nM and 426 nM.
Regarding `COc1cc(F)cc2c1nc(N)n1nc([C@H]3C[C@H](F)CN(c4cnn(CC(C)(C)O)c4)C3)nc21` (single isomer, unassigned) [Example 75, 1-(4-((3S,5S or 3R,5R)-3-(5-amino-9-fluoro-7-methoxy-[1,2,4]triazolo[1,5-c]quinazolin-2-yl)-5-fluoropiperidin-1-yl)-1H-pyrazol-1-yl)-2-methylpropan-2-ol], the IC50 in assay [1] stood at 56.9 nM. Also, the “A2B binding % Inh. @ 10000 nM” value in assay [2] (@ 10000 nM) is given as 54% Inh.
